biological target: BTK (Homo sapiens (Human), UniProt Q06187); experiment: In vitro BTK kinase assay: BTK-POLYGAT-LS ASSAY; conditions: not given
Sequence (Q06187 whole entry): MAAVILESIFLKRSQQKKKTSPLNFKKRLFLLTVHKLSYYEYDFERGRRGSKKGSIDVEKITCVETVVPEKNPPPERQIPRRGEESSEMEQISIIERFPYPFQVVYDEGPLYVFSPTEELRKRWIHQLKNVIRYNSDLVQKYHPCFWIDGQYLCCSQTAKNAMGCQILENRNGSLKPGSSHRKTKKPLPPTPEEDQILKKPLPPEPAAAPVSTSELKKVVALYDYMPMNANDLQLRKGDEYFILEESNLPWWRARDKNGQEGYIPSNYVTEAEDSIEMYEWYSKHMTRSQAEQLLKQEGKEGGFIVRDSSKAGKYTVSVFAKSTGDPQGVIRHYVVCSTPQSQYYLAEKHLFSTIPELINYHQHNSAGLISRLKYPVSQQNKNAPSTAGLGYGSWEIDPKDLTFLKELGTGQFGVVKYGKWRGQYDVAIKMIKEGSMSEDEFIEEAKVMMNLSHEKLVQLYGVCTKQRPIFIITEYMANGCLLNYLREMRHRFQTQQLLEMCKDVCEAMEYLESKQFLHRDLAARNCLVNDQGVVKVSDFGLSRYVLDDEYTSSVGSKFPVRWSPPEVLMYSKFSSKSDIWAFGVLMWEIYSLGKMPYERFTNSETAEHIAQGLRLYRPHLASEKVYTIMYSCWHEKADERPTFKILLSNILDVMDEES

Row | Structure (SMILES) | IC50 [µM]
1 | O=C(Nc1ccccc1)N[C@@H]1CCCN(C2CCCN(c3ncnc4[nH]ccc34)C2)C1 (stereo partly shown) [compound 205] | 1 to 10
2 | CCc1cccc(CC)c1NC(=O)Nc1cccc(C2CCCN(c3ncnc4[nH]ccc34)C2)c1 (stereo not shown) [Cmpd 33, 1-(3-(1-(7H-pyrrolo[2,3-d]pyrimidin-4-yl)piperidin-3-yl)phenyl)-3-(2,6-diethylphenyl)urea] | 0.1 to 0.999
3 | O=C1C(Nc2ccccc2)CCCN1[C@@H]1CCCN(c2ncnc3[nH]ccc23)C1 (stereo partly drawn) [compound 271, (3′R)-3-(phenylamino)-1′-(7H-pyrrolo[2,3-d]pyrimidin-4-yl)-1,3′-bipiperidin-2-one] | 0.1 to 0.999
4 | COc1ccc(NC(=O)Nc2cccc(C3CCCN(c4ncnc5[nH]ccc45)C3)c2)cc1 (stereo not shown) [compound 201] | 1 to 10
5 | O=C(NC[C@H]1CCCC[C@@H]1O)Nc1cccc(C2CCCN(c3ncnc4[nH]ccc34)C2)c1 (stereo partly shown) [compound 199] | 1 to 10
6 | O=C(Nc1cccc(Cl)c1)Nc1cccc(C2CCCN(c3ncnc4[nH]ccc34)C2)c1 (stereo not shown) [Cmpd 26, 1-(3-(1-(7H-pyrrolo[2,3-d]pyrimidin-4-yl)piperidin-3-yl)phenyl)-3-(3-chlorophenyl)urea] | 1 to 10
7 | O=C(Nc1cccc(C2CCCN(c3ncnc4[nH]ccc34)C2)c1)c1cccc(Cl)c1 (stereo not shown) [Cmpd 4, N-(3-(1-(7H-pyrrolo[2,3-d]pyrimidin-4-yl)piperidin-3-yl)phenyl)-3-chlorobenzamide] | 1 to 10
8 | O=C(Nc1cccc(C2CN(c3ncnc4[nH]ccc34)CCC2CO)c1)Nc1ccccc1N1CCCC1 (stereo not shown) [compound 163] | 0.1 to 0.999
9 | O=C(Nc1cc(C2CCCN(c3ncnc4[nH]ccc34)C2)ccc1OC(F)(F)F)c1ccccc1F (stereo not shown) [Cmpd 89, N-(5-(1-(7H-pyrrolo[2,3-d]pyrimidin-4-yl)piperidin-3-yl)-2-(trifluoromethoxy)phenyl)-2-fluorobenzamide] | 1 to 10
10 | O=C(Nc1ccccc1)Nc1cccc(C2CCCN(c3ncnc4[nH]ccc34)C2)n1 (stereo not shown) [compound 118, 1-(6-(1-(7H-pyrrolo[2,3-d]pyrimidin-4-yl)piperidin-3-yl)pyridin-2-yl)-3-phenylurea] | 1 to 10
11 | CO[C@@H]1CCN(c2ccccc2NC(=O)Nc2cccc(C3CCCN(c4ncnc5[nH]ccc45)C3)c2)C1 (stereo partly shown) [compound 176] | 0.1 to 0.999
12 | C[C@@H]1CCCN1c1ccccc1NC(=O)Nc1cccc(C2CCCN(c3ncnc4[nH]ccc34)C2)c1 (stereo partly shown) [compound 159] | 0.1 to 0.999
13 | CC(C)CNC(=O)Nc1cccc(C2CCCN(c3ncnc4[nH]ccc34)C2)c1 (stereo not shown) [compound 212] | 1 to 10
14 | Cc1ccnc(C)c1NC(=O)Nc1cccc(C2CCCN(c3ncnc4[nH]ccc34)C2)c1 (stereo not shown) [compound 200] | 1 to 10
15 | CN(C)c1ccccc1NC(=O)Nc1cccc(C2CCCN(c3ncnc4[nH]ccc34)C2)c1 (stereo not shown) [Cmpd 34, 1-(3-(1-(7H-pyrrolo[2,3-d]pyrimidin-4-yl)piperidin-3-yl)phenyl)-3-(2-(dimethylamino)phenyl)urea] | 1 to 10
16 | Nc1ncnc(N2C[C@@H](O)C[C@@H](N3CCCC(Nc4cc(F)cc(Cl)c4)C3=O)C2)c1F (stereo partly drawn) [compound 284, (3′R, 5′S)-1′-(6-Amino-5-fluoropyrimidin-4-yl)-3-(3-chloro-5-fluorophenylamino)-5′-hydroxy-1,3′-bipiperidin-2-one] | 0.1 to 0.999
17 | N[C@@H]1CCN(c2ccccc2NC(=O)Nc2cccc(C3CCCN(c4ncnc5[nH]ccc45)C3)c2)C1 (stereo partly shown) [compound 164] | 0.1 to 0.999
18 | O=C(Nc1ccccc1)Nc1cccc(C2CCCN(c3ncnc4[nH]nc(Br)c34)C2)c1 (stereo not shown) [Cmpd 100, 1-(3-(1-(3-Bromo-1H-pyrazolo[3,4-d]pyrimidin-4-yl)piperidin-3-yl)phenyl)-3-phenylurea] | 1 to 10
19 | O=C(Nc1cccc(F)c1)Nc1cccc(C2CCCN(c3ncnc4[nH]ccc34)C2)c1 (stereo not shown) [compound 183] | 1 to 10
20 | N[C@H]1CCN(c2ccccc2NC(=O)Nc2cccc(C3CCCN(c4ncnc5[nH]ccc45)C3)c2)C1 (stereo partly shown) [compound 169] | 0.1 to 0.999
21 | Nc1ncnc(N2CCC[C@@H](N3CC[C@@H](Nc4cc(Cl)cc(Cl)c4)C3=O)C2)c1Cl [compound 354] | 0.1 to 0.999
22 | O=C(Nc1cccc(C2CCCN(c3ncnc4[nH]ccc34)C2)c1)Nc1ccccc1N1CCC(F)(F)C1 (stereo not shown) [compound 168] | 0.1 to 0.999

same assay, conditions: read-out: IC50 (10 uM ATP)

Row | Structure (SMILES) | IC50 [µM]
23 | Nc1ncnc(N2CCC[C@@H](N3CCC[C@@H](Nc4cc(Cl)cc(C(F)(F)F)c4)C3=O)C2)c1F [compound 311, (3R,3′R)-1′-(6-Amino-5-fluoropyrimidin-4-yl)-3-(3-chloro-5-(trifluoromethyl)phenylamino)-1,3′-bipiperidin-2-one] | < 0.1
24 | Nc1ncnc(N2CCC[C@@H](N3CCCC(Nc4cc(Cl)cc(C(F)(F)F)c4)C3=O)C2)c1F (stereo partly drawn) [compound 308, (3′R)-1′-(6-Amino-5-fluoropyrimidin-4-yl)-3-(3-chloro-5-(trifluoromethyl)phenylamino)-1,3′-bipiperidin-2-one] | < 0.1

same assay, conditions: read-out: IC50 (10 uM ATP); 10 uM ATP; in vitro Btk kinase assay, Example 41

Row | Structure (SMILES) | IC50 [µM]
25 | O=C(Nc1ccccc1)Nc1ccc(C2CCCN(c3ncnc4[nH]ccc34)C2)cc1 (stereo not shown) [compound 268] | > 10
26 | O=C(Nc1cccc(C2CCCN(c3ncnc4[nH]ccc34)C2)c1)c1cccc(O)c1 (stereo not shown) [compound 15, N-(3-(1-(7H-pyrrolo[2,3-d]pyrimidin-4-yl)piperidin-3-yl)phenyl)-3-hydroxybenzamide] | > 10
27 | Nc1ncnc(N2CC(N3CCCC(Nc4cc(F)cc(Cl)c4)C3=O)CC(F)(F)C2)c1F (stereo not shown) [compound 359] | < 0.1
28 | O=C(Nc1cccc(C2CCCN(c3ncnc4[nH]ccc34)C2)c1)Nc1ccccc1N1CC[C@@H](O)C1 (stereo partly shown) [compound 149] | < 0.1
29 | O=C(Nc1cccc(C2CCCN(c3ncnc4[nH]ccc34)C2)c1)NC1CCNC1 (stereo not shown) [compound 239] | > 10
30 | O=c1c(Nc2cccc(Cl)c2)c(Nc2cccc(C3CCCN(c4ncnc5[nH]ccc45)C3)c2)c1=O (stereo not shown) [Cmpd 71, 3-(3-(1-(7H-pyrrolo[2,3-d]pyrimidin-4-yl)piperidin-3-yl)phenylamino)-4-(3-chlorophenylamino)cyclobut-3-ene-1,2-dione] | > 10
31 | CC1(C)[C@@H]2CCC(CNC(=O)Nc3cccc(C4CCCN(c5ncnc6[nH]ccc56)C4)c3)[C@H]1C2 (stereo partly shown) [compound 258] | > 10
32 | CC(C)(C)c1cccc(NC(=O)Nc2cccc(C3CCCN(c4ncnc5[nH]ccc45)C3)c2)c1 (stereo not shown) [compound 264] | > 10
33 | N#C/N=C(/NCC1CCCCC1)Nc1cccc(C2CCCN(c3ncnc4[nH]ccc34)C2)c1 (stereo not shown) [Cmpd 76, (E)-1-(3-(1-(7H-pyrrolo[2,3-d]pyrimidin-4-yl)piperidin-3-yl)phenyl)-2-cyano-3-(cyclohexylmethyl)guanidine] | > 10
34 | FC(F)(F)c1ccc(Nc2cccc(C3CCCN(c4ncnc5[nH]ccc45)C3)c2)nc1 (stereo not shown) [compound 142, N-(3-(1-(7H-pyrrolo[2,3-d]pyrimidin-4-yl)piperidin-3-yl)phenyl)-5-(trifluoromethyl)pyridin-2-amine] | > 10
35 | O=C(Nc1cccc(C2CCCN(c3ncnc4[nH]ccc34)C2)c1)c1ccccn1 (stereo not shown) [compound 13, N-(3-(1-(7H-pyrrolo[2,3-d]pyrimidin-4-yl)piperidin-3-yl)phenyl)picolinamide] | > 10
36 | COc1c(N)ncnc1N1CCCC(c2cccc(NC(=O)Nc3ccccc3)c2)C1 (stereo not shown) [Cmpd 97, 1-(3-(1-(6-Amino-5-methoxypyrimidin-4-yl)piperidin-3-yl)phenyl)-3-phenylurea] | > 10
37 | CC(=O)N1CCCC(CNC(=O)Nc2cccc(C3CCCN(c4ncnc5[nH]ccc45)C3)c2)C1 (stereo not shown) [compound 240] | > 10
38 | Nc1ncnc(N2CCC[C@@H](N3CCCC(NCc4ccccc4)C3=O)C2)c1F (stereo partly drawn) [compound 291, (3′R)-1′-(6-Amino-5-fluoropyrimidin-4-yl)-3-(benzylamino)-1,3′-bipiperidin-2-one] | > 10
39 | O=C(Nc1ccccc1)Nc1cnc(C2CCCN(c3ncnc4[nH]ccc34)C2)s1 (stereo not shown) [compound 117, 1-(2-(1-(7H-pyrrolo[2,3-d]pyrimidin-4-yl)piperidin-3-yl)thiazol-5-yl)-3-phenylurea] | > 10
40 | Cc1noc(C)c1NC(=O)Nc1cccc(C2CCCN(c3ncnc4[nH]ccc34)C2)c1 (stereo not shown) [compound 254] | > 10
41 | Nc1ncnc(N2CCC[C@@H](N3CCCC[C@@H](Nc4cc(F)cc(Cl)c4)C3=O)C2)c1F [compound 346, (R)-1-((R)-1-(6-amino-5-fluoropyrimidin-4-yl)piperidin-3-yl)-3-(3-chloro-5-fluorophenylamino)azepan-2-one] | < 0.1
42 | CCOC(=O)CCc1c(N)ncnc1N1CCCC(c2cccc(NC(=O)Nc3ccccc3)c2)C1 (stereo not shown) [compound 253] | > 10
43 | CN1CCC(CNC(=O)Nc2cccc(C3CCCN(c4ncnc5[nH]ccc45)C3)c2)CC1 (stereo not shown) [compound 245] | > 10
44 | CC(=O)N1CCN(c2ncnc3[nH]ccc23)CC1c1cccc(NC(=O)Nc2ccccc2)c1 (stereo not shown) [compound 127, 1-(3-(1-acetyl-4-(7H-pyrrolo[2,3-d]pyrimidin-4-yl)piperazin-2-yl)phenyl)-3-phenylurea] | > 10
45 | NC(=O)Cc1ccccc1NC(=O)Nc1cccc(C2CCCN(c3ncnc4[nH]ccc34)C2)c1 (stereo not shown) [compound 261] | > 10
46 | O=C(Nc1cccc(C2CN(c3ncnc4[nH]ccc34)CCN2CCO)c1)Nc1c(F)cccc1N1CCCC1 (stereo not shown) [compound 135, 1-(2-Fluoro-6-(pyrrolidin-1-yl)phenyl)-3-(3-(1-(2-hydroxyethyl)-4-(7H-pyrrolo[2,3-d]pyrimidin-4-yl)piperazin-2-yl)phenyl)urea] | < 0.1
47 | Nc1ncnc(N2CC[C@H](C(F)(F)F)[C@@H](N3CCC[C@@H](Nc4cc(Cl)cc(Cl)c4)C3=O)C2)c1F [compound 337, trans (3R)-1′-(6-Amino-5-fluoropyrimidin-4-yl)-3-(3,5-dichlorophenylamino)-4′-(trifluoromethyl)-1,3′-bipiperidin-2-one] | < 0.1
48 | C[C@H]1CCN(c2ncnc(N)c2F)C[C@@H]1N1CCCC(Nc2cc(Cl)cc(Cl)c2)C1=O (stereo partly drawn) [compound 281, trans-1′-(6-Amino-5-fluoropyrimidin-4-yl)-3-(3,5-dichlorophenylamino)-4′-methyl-1,3′-bipiperidin-2-one] | < 0.1
49 | O=C(Nc1ccncc1)Nc1cccc(C2CCCN(c3ncnc4[nH]ccc34)C2)c1 (stereo not shown) [Cmpd 31, 1-(3-(1-(7H-pyrrolo[2,3-d]pyrimidin-4-yl)piperidin-3-yl)phenyl)-3-(pyridin-4-yl)urea] | > 10

— patent US9790229B2, “Bruton's tyrosine kinase inhibitors” (priority 2009, dated 2017)
